Measurements reported in the supplement of paper PMC10920090.

Key:
[1] = test system: MDA-MB-231; test: drug sensitivity score (DSS), cytotoxicity CellTox Green; higher = more cytotoxic; extreme values may be limits of the assay; conditions: 72 h
[2] = test system: MDA-MB-231; test: drug sensitivity score (DSS), cell viability CellTiter-Glo; higher = more sensitive; extreme values may be limits of the assay; conditions: 72 h
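For drug sensitivity score (DSS), cytotoxicity CellTox Green in this document: DSS summarises each dose–response curve by combining IC50, EC50, maximal inhibition and efficacy across drug concentrations.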

| SMILES | drug sensitivity score ([1]; shRNA: shPPFIA1_1) | drug sensitivity score ([1]; shRNA: shScramble) | drug sensitivity score ([2]; shRNA: shPPFIA1_1) | drug sensitivity score ([2]; shRNA: shScramble) |
| --- | --- | --- | --- | --- |
| O=c1sn(-c2cccc3ccccc23)c(=O)n1Cc1ccccc1 [Tideglusib] | 0 DSS | 0 DSS | 0 DSS | 0 DSS |
| Cn1ncnc1[C@H]1c2n[nH]c(=O)c3cc(F)cc(c23)N[C@@H]1c1ccc(F)cc1 [Talazoparib] | 0 DSS | 0 DSS | 0 DSS | 0.4 DSS |
| COc1cc2c(cc1-c1c(C)noc1C)ncc1[nH]c(=O)n([C@H](C)c3ccccn3)c12 [I-BET151] | 0 DSS | 0 DSS | 0 DSS | 6.1 DSS |
| CN(c1ncccc1CNc1nc(Nc2ccc3c(c2)CC(=O)N3)ncc1C(F)(F)F)S(C)(=O)=O | 2.5 DSS | 1.8 DSS | 0.5 DSS | 5.8 DSS |
| N#Cc1ccc(C(c2ccc(C#N)cc2)n2cncn2)cc1 [Letrozole] | 0 DSS | 0 DSS | 0 DSS | 0 DSS |
| Cc1nc(-c2cn3c(n2)-c2ccc(-c4cnn(C(C)(C)C(N)=O)c4)cc2OCC3)n(C(C)C)n1 [Taselisib] | 0 DSS | 0 DSS | 0 DSS | 0.9 DSS |
| Cn1cnc2c(F)c(Nc3ccc(Br)cc3F)c(C(=O)NOCCO)cc21 [Binimetinib] | 0 DSS | 2.2 DSS | 0 DSS | 2.7 DSS |
| COc1c(OCCCN2CCOCC2)ccc2c1N=C(NC(=O)c1cnc(N)nc1)N1CCN=C21 [Copanlisib] | 10.2 DSS | 0 DSS | 0 DSS | 6.3 DSS |
| Cc1cc(Nc2nc(N[C@@H](C)c3ncc(F)cn3)ncc2Cl)[nH]n1 [AZD1480] | 0 DSS | 0 DSS | 0 DSS | 0 DSS |
| Cn1cc(-c2ccc3nnc(C(F)(F)c4ccc5ncccc5c4)n3n2)cn1 | 0 DSS | 0 DSS | 0 DSS | 6.9 DSS |
| Cc1ccc(Nc2nccc(N(C)c3ccc4c(C)n(C)nc4c3)n2)cc1S(N)(=O)=O [Pazopanib] | 0 DSS | 0 DSS | 2.7 DSS | 7.9 DSS |
| C/C(=C\c1csc(C)n1)[C@@H]1C[C@@H]2O[C@]2(C)CCC[C@H](C)[C@H](O)[C@@H](C)C(=O)C(C)(C)[C@@H](O)CC(=O)O1 [Patupilone] | 8.3 DSS | 5.8 DSS | 0 DSS | 12.3 DSS |
| O=c1[nH]c(=O)n([C@H]2C[C@H](O)[C@@H](CO)O2)cc1F [Floxuridine] | 0 DSS | 0.2 DSS | 14.6 DSS | 19.7 DSS |
| CCCCCCCCCCCCCCCCCCOP(=O)([O-])OC1CC[N+](C)(C)CC1 [Perifosine] | 0.9 DSS | 0 DSS | 0 DSS | 0.9 DSS |
| CCc1cc(Nc2nccc(-c3c(-c4ccc(OC)c(C(=O)Nc5c(F)cccc5F)c4)nc4ccccn34)n2)c(OC)cc1N1CCC(N2CCN(S(C)(=O)=O)CC2)CC1 | 0 DSS | 0 DSS | 2.9 DSS | 2.4 DSS |
| COc1cc(N2CCC(N3CCN(C)CC3)CC2)ccc1Nc1ncc(Cl)c(Nc2ccccc2P(C)(C)=O)n1 [Brigatinib] | 1.8 DSS | 3.6 DSS | 6.4 DSS | 0.7 DSS |
| c1ccc2c(CCNc3ccc(Nc4ccncc4)cc3)c[nH]c2c1 [Serdemetan] | 0 DSS | 0 DSS | 3 DSS | 0.7 DSS |
| O=C(Nc1ccncc1)C(=O)c1cn(Cc2ccc(Cl)cc2)c2ccccc12 [Indibulin] | 2.3 DSS | 0 DSS | 0 DSS | 3.1 DSS |
| NC1(c2ccc(-c3nc4ccn5c(=O)[nH]nc5c4cc3-c3ccccc3)cc2)CCC1 [MK-2206] | 0 DSS | 0 DSS | 6.5 DSS | 6.8 DSS |
| C[C@]12CC[C@@H]3c4ccc(O)cc4C[C@@H](CCCCCCCCC[S+]([O-])CCCC(F)(F)C(F)(F)F)[C@H]3[C@@H]1CC[C@@H]2O (stereo not given in full) [Fulvestrant] | 0 DSS | 0 DSS | 0 DSS | 0 DSS |

| SMILES | drug sensitivity score ([1]; shRNA: shPPFIA1_1) | drug sensitivity score ([1]; shRNA: shScramble) | drug sensitivity score ([2]; shRNA: shPPFIA1_1) | drug sensitivity score ([2]; shRNA: shScramble) |
| --- | --- | --- | --- | --- |
| CCn1c(-c2nonc2N)nc2c(C#CC(C)(C)O)ncc(OC[C@H]3CCCNC3)c21 | 0 DSS | 0 DSS | 0 DSS | 0.2 DSS |
| CN1CCN(CCOc2cc(OC3CCOCC3)c3c(Nc4c(Cl)ccc5c4OCO5)ncnc3c2)CC1 [Saracatinib] | 2.5 DSS | 1.3 DSS | 2.9 DSS | 2.7 DSS |
| CC(C)NC[C@@H](C(=O)N1CCN(c2ncnc3c2[C@H](C)C[C@H]3O)CC1)c1ccc(Cl)cc1 [Ipatasertib] | 0 DSS | 0 DSS | 3.3 DSS | 3.7 DSS |
| CNC(=O)c1ccc(N2C(=S)N(c3cnc(C#N)c(C(F)(F)F)c3)C(=O)C23CCC3)cc1F [ARN 509] | 0 DSS | 0 DSS | 0 DSS | 0.4 DSS |
| COc1cc(N2CCC(N3CCN(C)CC3)CC2)ccc1Nc1ncnc(Nc2ccccc2S(=O)(=O)C(C)C)n1 [ASP3026] | 0 DSS | 0 DSS | 0.3 DSS | 3.7 DSS |
| CC(C)(C)C[C@@H]1N[C@@H](C(=O)N[C@H]2CC[C@H](O)CC2)[C@H](c2cccc(Cl)c2F)[C@]12C(=O)Nc1cc(Cl)ccc12 | 0 DSS | 0.7 DSS | 0 DSS | 0 DSS |
| CO[C@H]1C[C@@H]2CC[C@@H](C)[C@@](O)(O2)C(=O)C(=O)N2CCCC[C@H]2C(=O)O[C@H]([C@H](C)C[C@@H]2CC[C@@H](OP(C)(C)=O)[C@H](OC)C2)CC(=O)[C@H](C)/C=C(\C)[C@@H](O)[C@@H](OC)C(=O)[C@H](C)C[C@H](C)/C=C/C=C/C=C/1C [Ridaforolimus] | 0 DSS | 0 DSS | 0 DSS | 1.6 DSS |
| Nc1nc(OCc2cc(Br)cs2)c2[nH]cnc2n1 [Lomeguatrib] | 0 DSS | 0 DSS | 0.1 DSS | 0 DSS |
| Cc1nc(Nc2n[nH]c3c2CN(C(=O)N[C@H](CN(C)C)c2ccccc2)C3(C)C)c2sccc2n1 | 5.8 DSS | 4.8 DSS | 5.6 DSS | 10.1 DSS |
| O=NN(CCCl)C(=O)NC1CCCCC1 [Lomustine] | 0 DSS | 0 DSS | 0 DSS | 0 DSS |
| COc1cc(N2CCN(C)CC2)ccc1Nc1nccc(-c2cn(C)c3cnccc23)n1 [AZ191] | 0 DSS | 2.9 DSS | 3.6 DSS | 6.8 DSS |
| COc1cc([C@@H]2c3cc4c(cc3[C@@H](O[C@@H]3O[C@@H]5CO[C@@H](c6cccs6)O[C@H]5[C@H](O)[C@H]3O)[C@H]3COC(=O)[C@H]23)OCO4)cc(OC)c1O [Teniposide] | 5.8 DSS | 5.3 DSS | 3.1 DSS | 9 DSS |
| COc1cc([C@@H]2c3cc4c(cc3[C@@H](O[C@@H]3O[C@@H]5CO[C@@H](C)O[C@H]5[C@H](O)[C@H]3O)[C@H]3COC(=O)[C@H]23)OCO4)cc(OC)c1O [Etoposide] | 1.6 DSS | 1.8 DSS | 0 DSS | 2 DSS |
| O=C(O)CCCCC(CCSCc1ccccc1)SCc1ccccc1 (stereo not given) [CPI-613] | 0 DSS | 0 DSS | 0 DSS | 0 DSS |
| Cc1cc2c(C(=O)NC[C@H](C)c3ccccc3)c(O)c(O)cc2c(O)c1-c1c(C)cc2c(C(=O)NC[C@H](C)c3ccccc3)c(O)c(O)cc2c1O [Sabutoclax] | 11.4 DSS | 5.6 DSS | 11.8 DSS | 13.6 DSS |
| CCCCC(=O)OCC(=O)[C@]1(O)Cc2c(O)c3c(c(O)c2[C@@H](O[C@H]2C[C@H](NC(=O)C(F)(F)F)[C@H](O)[C@H](C)O2)C1)C(=O)c1c(OC)cccc1C3=O [Valrubicin] | 0 DSS | 0 DSS | 0.8 DSS | 7 DSS |
| COc1ccc(C[C@H](NC(=O)[C@H](C)NC(=O)CN2CCOCC2)C(=O)N[C@@H](Cc2ccccc2)C(=O)C2(C)CO2)cc1 (stereo in doubt) [ONX-0914] | 19.1 DSS | 18.6 DSS | 17.1 DSS | 18.1 DSS |
| CNC(=O)c1ccc2cc([C@@]3(O)CCn4cncc43)ccc2c1 [Orteronel] | 0 DSS | 0 DSS | 0 DSS | 0 DSS |
| CC(C)c1cc(-c2n[nH]c(=O)n2-c2ccc3c(ccn3C)c2)c(O)cc1O [Ganetespib] | 1.2 DSS | 3 DSS | 9.9 DSS | 11.5 DSS |
| Cc1nc(Nc2ncc(C(=O)Nc3c(C)cccc3Cl)s2)cc(N2CCN(CCO)CC2)n1 [Dasatinib] | 0 DSS | 0 DSS | 0 DSS | 9.3 DSS |

| SMILES | drug sensitivity score ([1]; shRNA: shPPFIA1_1) | drug sensitivity score ([1]; shRNA: shScramble) | drug sensitivity score ([2]; shRNA: shPPFIA1_1) | drug sensitivity score ([2]; shRNA: shScramble) |
| --- | --- | --- | --- | --- |
| CN1CCC(COc2cnc(-c3cccc(Cn4nc(-c5cccc(C#N)c5)ccc4=O)c3)nc2)CC1 | 0 DSS | 0 DSS | 0 DSS | 0 DSS |
| CNC(=O)c1nn(C)c2c1C(C)(C)Cc1cnc(Nc3ccc(N4CCN(C)CC4)cc3)nc1-2 [Milciclib] | 0.3 DSS | 0 DSS | 0.9 DSS | 5.1 DSS |
| Nc1nc2[nH]cnc2c(=S)[nH]1 [Thioguanine] | 0 DSS | 0 DSS | 5.1 DSS | 10.2 DSS |
| CNC(=O)c1cc(Oc2ccc(NC(=O)Nc3cc(C(C)(C)C)nn3-c3ccc4ncccc4c3)c(F)c2)ccn1 [Rebastinib] | 0 DSS | 0 DSS | 0 DSS | 0 DSS |
| Cc1nc(=O)c2cc(CN(C)c3ccc(C(=O)N[C@@H](CCC(=O)O)C(=O)O)s3)ccc2[nH]1 [Raltitrexed] | 0 DSS | 0 DSS | 0 DSS | 0 DSS |
| CN1CCN(c2nc(C3=C(c4c[nH]c5ccccc45)C(=O)NC3=O)c3ccccc3n2)CC1 [Sotrastaurin] | 0.7 DSS | 0 DSS | 1 DSS | 0 DSS |
| Cc1cc(C)c(CNC(=O)c2cc(-c3ccc(CN4CCOCC4)cc3)cc3c2cnn3C2CCCC2)c(=O)[nH]1 [EPZ-5687] | 0 DSS | 0 DSS | 3.5 DSS | 0 DSS |
| CNC(=O)c1ccc(N2C(=S)N(c3ccc(C#N)c(C(F)(F)F)c3)C(=O)C23CCC3)cc1F [RD162] | 0.8 DSS | 0 DSS | 0 DSS | 0 DSS |
| COc1cccc2c1c(O)c(C(=O)N(C)c1ccc(C(F)(F)F)cc1)c(=O)n2C [Tasquinimod] | 0 DSS | 0 DSS | 0 DSS | 3.4 DSS |
| C[C@H]1C[C@@H]2[C@H]([C@@H](O)C[C@@]3(C)[C@H]2CC[C@]3(O)C(=O)CO)[C@@]2(C)C=CC(=O)C=C12 [Methylprednisolone] | 0 DSS | 0 DSS | 0 DSS | 0 DSS |
| CCOC(=O)CCNc1cc(N2CCc3ccccc3CC2)nc(-c2ccccn2)n1 [GSK-J4] | 7.4 DSS | 8.3 DSS | 10.2 DSS | 11.3 DSS |
| O=C(Nc1ccc(OC(F)(F)F)cc1)c1sccc1NCc1ccnc2ccccc12 [OSI-930] | 0 DSS | 0.9 DSS | 4.5 DSS | 8 DSS |
| COC(=O)C[C@](O)(CCCC(C)(C)O)C(=O)O[C@@H]1C(OC)=C[C@]23CCCN2CCc2cc4c(cc2[C@H]13)OCO4 [Omacetaxine] | 11.8 DSS | 18.4 DSS | 11.2 DSS | 22.9 DSS |
| COc1nc(N)nc2c1ncn2[C@@H]1O[C@H](CO)[C@@H](O)[C@@H]1O [Nelarabine] | 0 DSS | 0 DSS | 0 DSS | 0 DSS |
| CC(=O)c1cnc2ccc(-c3cc(Cl)c(O)c(Cl)c3)nc2c1N[C@H]1CC[C@H](CN(C)C)CC1 [OTSSP167] | 0 DSS | 0.2 DSS | 22.4 DSS | 9.1 DSS |
| C[C@]12CC[C@H](O)CC1=CC[C@@H]1[C@@H]2CC[C@]2(C)C(c3cccnc3)=CC[C@@H]12 [Abiraterone] | 0 DSS | 0 DSS | 0 DSS | 0.9 DSS |
| CNC(=O)c1cc(Oc2ccc(NC(=O)Nc3ccc(Cl)c(C(F)(F)F)c3)c(F)c2)ccn1 [Regorafenib] | 8.2 DSS | 4.3 DSS | 3.6 DSS | 7 DSS |
| N#CC(c1ccnc(OCc2ccc(CN3CCOCC3)cc2)n1)c1nc2ccccc2s1 (stereo not given) [Bentamapimod] | 0 DSS | 0 DSS | 1.6 DSS | 3.7 DSS |
| Nc1ncnc2c1nc(N)n2[C@@H]1O[C@H](CO)[C@@H](O)[C@H]1O [8-amino-adenosine] | 12.2 DSS | 13.8 DSS | 18.1 DSS | 22.8 DSS |
| C[C@@H]1CN(CC(=O)Nc2ccc3c(c2)Cc2cccc(-c4cc(=O)cc(N5CCOCC5)o4)c2S3)C[C@H](C)O1 | 0.2 DSS | 0 DSS | 0 DSS | 3.6 DSS |
